“And” between values parts separate entries of the source, which are not always exact repeats. Equal values may be shown once. No end group written: not given here. *: point of attachment. ClAc = O=C(CCl)*
Test system: PSMD2
Assay type: binding, human

Row | Substance | ELISA S/N | PSMD2 binding compared with MC3
1 | ClAc-FRRNVNWWRLYC (also: sidechain bridge or staple (positions not given here)) [hit 5] | > 30 | equivalent or better binding
2 | ClAc-FSALRHIAIFRYC (also: sidechain bridge or staple (positions not given here)) [hit 2] | > 30 | equivalent or better binding
3 | ClAc-FSRNAGFWARYC (also: sidechain bridge or staple (positions not given here)) [hit 3] | 49.0 and > 30 | equivalent or better binding

From article PMC10278063 (ACS Chemical Biology, 2023)
